Laboratory results: patent US11912686B2 (Gilead Sciences, Inc., priority 2020, dated 2024)

biological target: human LPAR1 (Homo sapiens (Human), UniProt Q92633); assay: LPAR1 intracellular calcium mobilization assay (antagonist mode, FLIPR); type: cell-based; details: CHO-K1 EDG2 cells expressing human LPAR1, LPA 18:2 at EC80 (100 nM), test compound 0.5 nM to 10 μM
Sequence (Q92633 whole entry): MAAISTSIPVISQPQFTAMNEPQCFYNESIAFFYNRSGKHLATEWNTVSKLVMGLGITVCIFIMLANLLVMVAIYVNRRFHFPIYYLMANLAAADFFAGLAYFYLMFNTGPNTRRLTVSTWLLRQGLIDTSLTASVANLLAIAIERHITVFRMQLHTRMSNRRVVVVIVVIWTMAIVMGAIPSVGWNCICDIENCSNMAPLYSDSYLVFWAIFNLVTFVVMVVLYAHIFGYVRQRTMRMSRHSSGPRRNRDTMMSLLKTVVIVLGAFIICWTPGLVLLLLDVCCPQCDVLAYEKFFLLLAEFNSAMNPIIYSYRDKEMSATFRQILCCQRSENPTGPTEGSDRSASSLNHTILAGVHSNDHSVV

Compared with `C[C@@H](OC(=O)Nc1c(-c2ccc(NC(=O)[C@@H]3C[C@H]3c3ccccc3)cn2)nnn1C)c1cccnc1Cl` [Compound 197, (R)-1-(2-chloropyridin-3-yl)ethyl (1-methyl-4-(5-((1R,2R)-2-phenylcyclopropane-1-carboxamido)pyridin-2-yl)-1H-1,2,3-triazol-5-yl)carbamate], `C[C@@H](OC(=O)Nc1c(-c2ccc(NC(=O)C3C(F)(F)C34CC4)cn2)nnn1C)c1cccnc1Cl` (stereo partly drawn) [Compound 199, (R)-1-(2-chloropyridin-3-yl)ethyl (4-(5-(2,2-difluorospiro[2.2]pentane-1-carboxamido)pyridin-2-yl)-1-methyl-1H-1,2,3-triazol-5-yl)carbamate] is 13-fold higher in EC50: 5.2 nM for the first, 65.7 nM for the second.

Going from `C[C@@H](OC(=O)Nc1c(-c2ccc(NC(=O)C3(c4cccnc4)CC(F)(F)C3)cn2)nnn1C)c1cccnc1Cl` [Compound 198, (R)-1-(2-chloropyridin-3-yl)ethyl (4-(5-(3,3-difluoro-1-(pyridin-3-yl)cyclobutane-1-carboxamido)pyridin-2-yl)-1-methyl-1H-1,2,3-triazol-5-yl)carbamate] to `C[C@@H](OC(=O)Nc1c(-c2ccc(NC(=O)C3(CO)CC(F)(F)C3)cn2)nnn1C)c1cccnc1Cl` [Compound 200, (R)-1-(2-chloropyridin-3-yl)ethyl (4-(5-(3,3-difluoro-1-(hydroxymethyl)cyclobutane-1-carboxamido)pyridin-2-yl)-1-methyl-1H-1,2,3-triazol-5-yl)carbamate], the EC50 falls from 613 nM to 94 nM (6.5-fold).

Going from `C[C@@H](OC(=O)Nc1c(-c2ccc(NC(=O)[C@]3(C#N)C[C@H]3C(F)(F)F)cn2)nnn1C)c1cccnc1Cl` [Compound 201, (R)-1-(2-chloropyridin-3-yl)ethyl (4-(5-((1R,2R)-1-cyano-2-(trifluoromethyl)cyclopropane-1-carboxamido)pyridin-2-yl)-1-methyl-1H-1,2,3-triazol-5-yl)carbamate] to `C[C@@H](OC(=O)Nc1c(-c2ccc(NC(=O)[C@@]3(C#N)C[C@@H]3C(F)(F)F)cn2)nnn1C)c1cccnc1Cl` [Compound 202, (R)-1-(2-chloropyridin-3-yl)ethyl (4-(5-((1S,2S)-1-cyano-2-(trifluoromethyl)cyclopropane-1-carboxamido)pyridin-2-yl)-1-methyl-1H-1,2,3-triazol-5-yl)carbamate], the EC50 falls from 146 nM to 5 nM (29-fold). The second is the more potent here.

`C[C@H](C#N)C(=O)Nc1ccc(-c2nnn(C)c2NC(=O)O[C@H](C)c2cccnc2Cl)nc1` [Compound 203, (R)-1-(2-chloropyridin-3-yl)ethyl (4-(5-((R)-2-cyanopropanamido)pyridin-2-yl)-1-methyl-1H-1,2,3-triazol-5-yl)carbamate] and `C[C@@H](C#N)C(=O)Nc1ccc(-c2nnn(C)c2NC(=O)O[C@H](C)c2cccnc2Cl)nc1` [Compound 204, (R)-1-(2-chloropyridin-3-yl)ethyl (4-(5-((S)-2-cyanopropanamido)pyridin-2-yl)-1-methyl-1H-1,2,3-triazol-5-yl)carbamate] are within 1.5-fold of each other in EC50: 94.8 nM for the first, 132 nM for the second.

Compared with `C[C@@H](OC(=O)Nc1c(-c2ccc(NC(=O)c3cnc(C(F)(F)F)nc3)cn2)nnn1C)c1cccnc1Cl` [Compound 205, (R)-1-(2-chloropyridin-3-yl)ethyl (1-methyl-4-(5-(2-(trifluoromethyl)pyrimidine-5-carboxamido)pyridin-2-yl)-1H-1,2,3-triazol-5-yl)carbamate], `C[C@@H](OC(=O)Nc1c(-c2ccc(NC(=O)c3cnc(C(F)F)nc3)cn2)nnn1C)c1cccnc1Cl` [Compound 206, (R)-1-(2-chloropyridin-3-yl)ethyl (4-(5-(2-(difluoromethyl)pyrimidine-5-carboxamido)pyridin-2-yl)-1-methyl-1H-1,2,3-triazol-5-yl)carbamate] is 8.7-fold higher in EC50: 8.3 nM for the first, 71.8 nM for the second.

Work on `C[C@@H](OC(=O)Nc1c(-c2ccc(NC(=O)c3ccc(Cl)nc3)cn2)nnn1C)c1cc(F)cnc1F` [Compound 212, (R)-1-(2,5-difluoropyridin-3-yl)ethyl (4-(5-(6-chloronicotinamido)pyridin-2-yl)-1-methyl-1H-1,2,3-triazol-5-yl)carbamate] yielded an EC50 of 56.4 nM.
